Values joined by “and” are separate entries in the source; they are usually repeats but may differ in a detail not shown here. Identical values can stand only once. Like-named read-outs stand apart in the source and are kept apart here.
How the values were obtained:
[1] = system: production of Leukotriene C4 in mouse peritoneal macrophages; assay: In vitro mouse peritoneal macrophage Leukotriene C4 inhibition (zymosan-stimulated, LTC4 radioimmunoassay); type: cell-based; settings: Zymosan 50 µg/mL
Outline: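 Adherent peritoneal macrophages from female CD-1 mice were preincubated 15 minutes at 37°C with compound (10, 1 and 0.1 µM, duplicate; DMSO). They were then stimulated with 50 µg/mL zymosan for 1 to 2 hours. Leukotriene C4 released into the medium was measured by radioimmunoassay.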

[2] = system: production of Leukotriene B4; assay: Rat ex vivo Leukotriene B4 inhibition (oral dosing, blood challenged with A23187); type: in vivo, Rats; settings: two hours post dose
Outline: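 Male CD rats (250 g, non-fasted) dosed orally with compound in PEG 400, 5 rats/group; blood drawn by cardiac puncture before and 2 h after dosing. Heparinized blood challenged with A23187 calcium ionophore, 30 min at 37°C; plasma LTB4 measured by radioimmunoassay. % inhibition = post-dose vs pre-dose LTB4 level.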

[3] = system: production of Leukotriene B4 (LTB4); assay: Dog ex vivo Leukotriene B4 inhibition (oral dosing, blood challenged with calcium ionophore); type: in vivo, beagle dogs; settings: each entry one dog, negative = stimulation of LTB4 production; for % Inhibition 4 hour / % Inhibition 6 hour / % Inhibition 2 hour / % Inhibition 1 hour: 5 mg/Kg; for inhibition at 5 mg/kg: Canis lupus familiaris, po
Outline: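 Beagle dogs (~10 kg) given compound orally by gavage in PEG 400 at 5 mg/kg; jugular blood drawn pre-dose and at selected post-dose times. Blood challenged with calcium ionophore 30 min at 37°C, plasma LTB4 measured by radioimmunoassay; % inhibition from post-dose versus pre-dose LTB4, one dog per value.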

[4] = 1 h, 1 hour post dose, read-out: % Inhibition 1 hour
[5] = 2 h, 2 hour post dose, read-out: % Inhibition 2 hour
[6] = 4 h, 4 hour post dose, read-out: % Inhibition 4 hour
[7] = 6 h, 6 hour post dose, read-out: % Inhibition 6 hour

Compound: COc1ccc(NC(=O)N(O)C(C)C)cc1 [Compound 23, 1-hydroxy-3-(4-methoxyphenyl)-1-(1-methylethyl)urea]
- IC50 [1]: 200 nM
- %I ([2]; 50 mg/Kg): 45%
- % Inhibition 4 hour ([3]; 4 hour post dose): 84% and 82% and 59%
- % Inhibition 6 hour ([3]; 6 hour post dose): 15% and 80% and 98% and 56%
- inhibition at 5 mg/kg [3, 4]: 100%
- inhibition at 5 mg/kg [3, 5]: 99%

Compound: CC(C)N(O)C(=O)Nc1ccccc1F [Compound 20, 3-(2-fluorophenyl)-1-hydroxy-1-(1-methylethyl)urea]
- IC50 [1]: 200 nM
- %I ([2]; 50 mg/Kg): 19%
- % Inhibition 4 hour ([3]; 4 hour post dose): 64%
- % Inhibition 6 hour ([3]; 6 hour post dose): 13%
- inhibition at 5 mg/kg [3, 4]: 100%
- inhibition at 5 mg/kg [3, 5]: 100%
- inhibition at 5 mg/kg [3, 6]: 57%
- inhibition at 5 mg/kg [3, 7]: 17%

Compound: CN(O)C(=O)Nc1cccc(F)c1 [Compound 8, 3-(3-fluorophenyl)-1-hydroxy-1-methylurea]
- IC50 [1]: 400 nM
- %I ([2]; 5 mg/Kg): 29%
- % Inhibition 4 hour ([3]; 4 hour post dose): 27% and 11%
- % Inhibition 6 hour ([3]; 6 hour post dose): 9% and -32%
- inhibition at 5 mg/kg [3, 4]: 100%
- inhibition at 5 mg/kg [3, 5]: 92%

Compound: CN(O)C(=O)Nc1cccc([N+](=O)[O-])c1 [Compound 9, 1-hydroxy-1-methyl-3-(3-nitrophenyl)urea]
- IC50 [1]: 700 nM
- %I ([2]; 25 mg/Kg): 34%
- % Inhibition 2 hour ([3]; 2 hour post dose): 34% and 83%
- % Inhibition 4 hour ([3]; 4 hour post dose): 18%
- % Inhibition 6 hour ([3]; 6 hour post dose): 54%
- inhibition at 5 mg/kg [3, 4]: 100%
- inhibition at 5 mg/kg [3, 6]: 33%
- inhibition at 5 mg/kg [3, 7]: 56%

Compound: CN(O)C(=O)Nc1cccc(Br)c1 [Compound 6, 3-(3-bromophenyl)-1-hydroxy-1-methylurea]
- IC50 [1]: < 100 nM
- %I ([2]; 5 mg/Kg): 39%
- %I ([2]; 50 mg/Kg): 47%
- % Inhibition 1 hour ([3]; 1 hour post dose): 100%
- % Inhibition 2 hour ([3]; 2 hour post dose): 11% and 62%
- % Inhibition 4 hour ([3]; 4 hour post dose): -36% and 27%
- % Inhibition 6 hour ([3]; 6 hour post dose): -52% and 19%
- inhibition at 5 mg/kg [3, 4]: 86%

Compound: CSc1cccc(NC(=O)N(O)C(C)C)c1 [Compound 16, 1-hydroxy-1-(1-methylethyl)-3-[3-(methylthio)phenyl]urea]
- IC50 [1]: < 1000 nM
- %I ([2]; 25 mg/Kg): 74%
- % Inhibition 4 hour ([3]; 4 hour post dose): -8% and -18% and -14% and -80%
- % Inhibition 6 hour ([3]; 6 hour post dose): -39% and -24% and -186%
- inhibition at 5 mg/kg [3, 4]: 100%
- inhibition at 5 mg/kg [3, 5]: 97%

Compound: CN(O)C(=O)Nc1cccc(S(C)(=O)=O)c1 [Compound 59, 1-Hydroxy-1-methyl-3-[3-(methylsulfonyl)phenyl]urea]
- IC50 [1]: 300 nM
- %I ([2]; 5 mg/Kg): 9%
- %I ([2]; 10 mg/Kg): 23%
- %I ([2]; 20 mg/Kg): 20%
- %I ([2]; 25 mg/Kg): 49%
- %I ([2]; 50 mg/Kg): 65% and 87%
- % Inhibition 4 hour ([3]; 4 hour post dose): 83% and 75% and 78%
- % Inhibition 6 hour ([3]; 6 hour post dose): 37% and 55% and 93% and 76%
- inhibition at 5 mg/kg [3, 4]: 100%
- inhibition at 5 mg/kg [3, 5]: 99%

Compound: CC(C)CCN(O)C(=O)Nc1ccccc1 [Compound 44, 1-hydroxy-1-(3-methylbutyl)-3-phenylurea]
- IC50 [1]: < 1000 nM
- %I ([2]; 50 mg/Kg): 18%
- % Inhibition 1 hour ([3]; 1 hour post dose): 80% and 52%
- % Inhibition 2 hour ([3]; 2 hour post dose): 11% and 5%
- % Inhibition 4 hour ([3]; 4 hour post dose): -19% and 12%
- % Inhibition 6 hour ([3]; 6 hour post dose): -19% and 30%

Compound: CC(C)CN(O)C(=O)Nc1ccccc1 [Compound 54, 1-Hydroxy-1-(2-methylpropyl)-3-phenylurea]
- IC50 [1]: 1300 nM
- %I ([2]; 50 mg/Kg): 42%
- inhibition at 5 mg/kg [3, 4]: 99%
- inhibition at 5 mg/kg [3, 5]: 97%
- inhibition at 5 mg/kg [3, 6]: 33%
- inhibition at 5 mg/kg [3, 7]: 43%

Compound: CC(C)N(O)C(=O)Nc1ccccc1Cl [Compound 24, 3-(2-chlorophenyl)-1-hydroxy-1-(1-methylethyl)urea]
- IC50 [1]: 200 nM
- %I ([2]; 50 mg/Kg): 29%
- % Inhibition 1 hour ([3]; 1 hour post dose): 100%
- % Inhibition 2 hour ([3]; 2 hour post dose): 84%
- % Inhibition 4 hour ([3]; 4 hour post dose): 14%
- % Inhibition 6 hour ([3]; 6 hour post dose): -21% and -24%
- inhibition at 5 mg/kg [3, 4]: 99%
- inhibition at 5 mg/kg [3, 5]: 73%
- inhibition at 5 mg/kg [3, 6]: 7%

Compound: CC(C)N(O)C(=O)Nc1ccccc1 [Compound 17, 1-hydroxy-1-(1-methylethyl)-3-phenylurea]
- IC50 [1]: 600 nM
- %I ([2]; 50 mg/Kg): 26%
- % Inhibition 4 hour ([3]; 4 hour post dose): 70%
- % Inhibition 6 hour ([3]; 6 hour post dose): 64% and 43%
- inhibition at 5 mg/kg [3, 4]: 100%
- inhibition at 5 mg/kg [3, 5]: 98%

Compound: COc1cccc(NC(=O)N(C)O)c1 [Compound 5, 1-hydroxy-3-(3-methoxyphenyl)-1-methylurea]
- IC50 [1]: 200 nM
- %I ([2]; 50 mg/Kg): 82%
- % Inhibition 2 hour ([3]; 2 hour post dose): 75%
- % Inhibition 4 hour ([3]; 4 hour post dose): 99% and 44%
- % Inhibition 6 hour ([3]; 6 hour post dose): 20% and 50%
- inhibition at 5 mg/kg [3, 4]: 100%

Compound: CC(C)N(O)C(=O)Nc1ccc(Br)cc1 [Compound 19, 3-(4-bromophenyl)-1-hydroxy-1-(1-methylethyl)urea]
- IC50 [1]: < 1000 nM
- %I ([2]; 50 mg/Kg): 3%
- % Inhibition 4 hour ([3]; 4 hour post dose): 11% and 74%
- % Inhibition 6 hour ([3]; 6 hour post dose): 29% and 65%
- inhibition at 5 mg/kg [3, 4]: 100%
- inhibition at 5 mg/kg [3, 5]: 84%

Compound: CSc1ccc(NC(=O)N(C)O)cc1 [Compound 1, 1-Hydroxy-1-methyl-3-[4-(methylthio)phenyl]urea]
- IC50 [1]: < 1000 nM
- %I ([2]; 5 mg/Kg): 18%
- %I ([2]; 50 mg/Kg): 87%
- % Inhibition 6 hour ([3]; 6 hour post dose): 95%
- inhibition at 5 mg/kg [3, 4]: 100%
- inhibition at 5 mg/kg [3, 5]: 100%
- inhibition at 5 mg/kg [3, 6]: 100%
- inhibition at 5 mg/kg [3, 7]: 93%

Compound: Cc1ccccc1NC(=O)N(O)C(C)C [Compound 25, 1-hydroxy-1-(1-methylethyl)-3-(2-methylphenyl)urea]
- IC50 [1]: 600 nM
- %I ([2]; 10 mg/Kg): 13%
- %I ([2]; 25 mg/Kg): 44%
- %I ([2]; 50 mg/Kg): 45% and 79%
- % Inhibition 1 hour ([3]; 1 hour post dose): 98%
- % Inhibition 2 hour ([3]; 2 hour post dose): 57%
- % Inhibition 4 hour ([3]; 4 hour post dose): -45% and -78%
- % Inhibition 6 hour ([3]; 6 hour post dose): 9%
- inhibition at 5 mg/kg [3, 4]: 100%
- inhibition at 5 mg/kg [3, 5]: 51%
- inhibition at 5 mg/kg [3, 7]: 7%

Compound: CN(O)C(=O)Nc1ccccc1 [Compound 10, 1-hydroxy-1-methyl-3-phenylurea]
- IC50 [1]: < 1000 nM
- %I ([2]; 25 mg/Kg): 23%
- %I ([2]; 50 mg/Kg): 41%
- % Inhibition 4 hour ([3]; 4 hour post dose): 34%
- % Inhibition 6 hour ([3]; 6 hour post dose): 42%
- inhibition at 5 mg/kg [3, 4]: 100%
- inhibition at 5 mg/kg [3, 5]: 100%
- inhibition at 5 mg/kg [3, 6]: 49%
- inhibition at 5 mg/kg [3, 7]: 52%

Compound: Cc1cccc(NC(=O)N(C)O)c1 [Compound 7, 1-hydroxy-1-methyl-3-(3-methylphenyl)urea]
- IC50 [1]: < 1000 nM
- %I ([2]; 5 mg/Kg): 32%
- % Inhibition 2 hour ([3]; 2 hour post dose): 99%
- % Inhibition 4 hour ([3]; 4 hour post dose): 56%
- % Inhibition 6 hour ([3]; 6 hour post dose): -21% and 48%
- inhibition at 5 mg/kg [3, 4]: 100%
- inhibition at 5 mg/kg [3, 5]: 100%
- inhibition at 5 mg/kg [3, 6]: 70%

Compound: CC(C)N(O)C(=O)Nc1ccc(F)cc1 [Compound 18, 3-(4-fluorophenyl)-1-hydroxy-1-(1-methylethyl)urea]
- IC50 [1]: 800 nM
- %I ([2]; 50 mg/Kg): 3%
- % Inhibition 4 hour ([3]; 4 hour post dose): 57%
- % Inhibition 6 hour ([3]; 6 hour post dose): 46% and -12%
- inhibition at 5 mg/kg [3, 4]: 100%
- inhibition at 5 mg/kg [3, 5]: 100%
- inhibition at 5 mg/kg [3, 6]: 49%

Compound: Cc1cccc(NC(=O)N(O)C(C)C)c1 [Compound 21, 1-hydroxy-1-(1-methylethyl)-3-(3-methylphenyl)urea]
- IC50 [1]: 100 nM
- % Inhibition 2 hour ([3]; 2 hour post dose): 88%
- % Inhibition 4 hour ([3]; 4 hour post dose): 0% and -37%
- % Inhibition 6 hour ([3]; 6 hour post dose): 24% and -8%
- inhibition at 5 mg/kg [3, 4]: 100%
- inhibition at 5 mg/kg [3, 5]: 95%
